US4465676A, “16α Halogen substituted 3,17β-dihydroxy steroidal estrogens” (priority 1980, dated 1984)
Where two headings read alike, the source gives them in different places.

Columns and labels:
[1] = tested on: estrogen receptors; settings: ability to displace [3H]estradiol from receptor sites; cited from earlier work
[2] = biological target: T1, estrogen receptor (calf uterine cytosol) (Bos taurus, UniProt P49884); test: Competition for the estrogen receptor in calf uterine cytosol; type: binding; settings: for activity at 0.0005 µM: competitor 0.5 nM
T1 construct: Fresh calf uteri obtained from a slaughterhouse; from tissue; host or cells: calf uterus, 150,000 x g cytosol from lyophilized powder
T1 sequence (P49884 1-596): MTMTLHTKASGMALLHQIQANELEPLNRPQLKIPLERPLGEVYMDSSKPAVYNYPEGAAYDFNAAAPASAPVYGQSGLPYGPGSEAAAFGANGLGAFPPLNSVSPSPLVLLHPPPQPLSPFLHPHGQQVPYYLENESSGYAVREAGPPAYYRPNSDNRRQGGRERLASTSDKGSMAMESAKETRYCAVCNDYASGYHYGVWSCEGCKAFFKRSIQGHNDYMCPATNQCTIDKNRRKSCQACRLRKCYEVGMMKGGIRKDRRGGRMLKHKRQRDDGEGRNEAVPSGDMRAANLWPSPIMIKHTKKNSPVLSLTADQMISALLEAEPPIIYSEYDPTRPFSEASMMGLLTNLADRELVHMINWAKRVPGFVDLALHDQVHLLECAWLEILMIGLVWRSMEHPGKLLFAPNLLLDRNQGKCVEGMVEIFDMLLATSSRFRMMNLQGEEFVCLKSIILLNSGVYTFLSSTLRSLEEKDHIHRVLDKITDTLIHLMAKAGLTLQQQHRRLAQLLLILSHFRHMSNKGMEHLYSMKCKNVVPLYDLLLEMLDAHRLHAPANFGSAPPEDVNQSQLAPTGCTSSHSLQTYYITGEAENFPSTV
Procedure: Several compounds, at the two indicated concentrations, were allowed to compete with both labeled steroids for sites in calf uterine cytosol. Incubations were overnight at 4° C., and bound and free steroids were separated with dextran-coated charcoal.

[3] = tested on: antisera against bovine serum albumin complexes with E2-17-hemisuccinate, E2-6-carboxymethyloxime and E2-3-carboxymethyl ether; test: Radioimmunoassay with antisteroid antisera; type: binding, rabbits
Procedure: Antisteroid antisera were produced in rabbits immunized with steroid-bovineserum albumin conjugates.
Varying amounts of E2 dissolved in methanol were added to test tubes and evaporated to dryness. The residues were dissolved in 100 μl of antiserum that had been diluted in 0.1M phosphate, pH 7.0/0.015M sodium azide/0.15M NaCl/0.1% gelatin (PBS buffer). […] Upon completion of the incubation, 100 μl of 0.5% gelatin in PBS buffer was added, followed by 1 ml of PBS buffer containing 2.5 mg of dextran-coated charcoal. The mixture was agitated in a vortex mixer and, after 10 minutes at 4° C., it was centrifuged at 5000×g for 10 minutes at 4° C. Aliquots (0.9 ml) were assayed for radioactivity.
The data also indicate that very sensitive radioimmunoassays could be developed with all three antisera.

[4] = tested on: estrogen-dependent human breast tumor cell line (MCF-7); test: Induction of growth of MCF-7 cells in vitro; type: cell-based
Text: This difference in potency, can be explained either by differences in the peripheral metabolism of the two compounds or by differences in events that occur after binding to the cytosolic receptor has taken place. At this time we believe the former explanation to be correct because the two estrogens are equipotent in vitro in inducing growth of an estrogen-dependent human breast tumor cell line (MCF-7).

[5] = biological target: T2, calf uterine estrogen receptor (Bos taurus, UniProt P49884); test: Saturation and Scatchard analysis of the estrogen receptor from calf uterus; type: binding; settings: Scatchard analysis, calf uterine cytosol
T2 construct: Fresh calf uteri obtained from a slaughterhouse; from tissue; host or cells: calf uterus, 150,000 x g cytosol from lyophilized powder
T2 sequence (P49884 1-596): T1 sequence (P49884 1-596)
Procedure: Fresh calf uteri obtained from a slaughterhouse were brought to the laboratory on ice, immediately trimmed of fat, and cut into small pieces; the pieces were frozen in liquid nitrogen and pulverized. The pulverized frozen tissue was lyophilized, and the desiccated powder was stored under vacuum in sealed vials at -80° C. The uterine powders were usually used within 1 month of pulverization. When needed, the powders were suspended in 0.1M Tris-HCl, pH 7.4/2.5 mM EDTA/5 mM dithiotreithol (TED buffer) at 2.5 mg/ml and homogenized at 0° C. in a Polytron homogenizer with two or three pulses at 15 seconds each. The homogenate was then centrifuged at 150,000×g for 60 minutes and the resulting supernatant (cytosol), containing approximately 1 mg of protein per ml, was used for binding studies on the estrogen receptor.
After the solvent was removed under a stream of N2, 250 μl of cytosol was added and the samples were incubated at 0°-2° C. overnight. The following morning, 250 μl of a 0.5% suspension of dextran-coated charcoal in TED buffer was added to the tubes which then were mixed and centrifuged at 5000×g for 10 minutes. The supernatant was assayed to determine bound radioactivity.
A saturation analysis of the estrogen receptor from calf uterus was conducted. […] Nonspecific binding, specific binding and total binding were determined in parallel incubations containing 0.7 μM DES.
A Scatchard analysis of the estrogen receptor from calf uterus was also conducted.

[6] = tested on: 21-day-old female rats (uteri); test: Estrogen bioassay, uterine weight in 21-day-old female rats; type: in vivo; settings: daily s.c. injections for 3 days, uterine weight on fourth day
Procedure: Estrogenic potency was assayed in 21-day-old female rats. […] On the fourth day, the uteri were removed, trimmed, blotted, and weighed.

[7] = External localization of tracer in an ovariectomized squirrel monkey; type: in vivo, squirrel monkey (Saimari Sciureus)
Procedure: The tracer ^131 I-E2 was synthesized as described in Example 6 with the exception that Na ^131 I was used for the exchange. The subject, a squirrel monkey (Saimari Sciureus), weighing 1.5 kilograms, was ovariectomized 2 weeks before the start of the experiment and an estradiol containing Silastic implant was placed subcutaneously in […] back. The implant was removed 24 hours before the intravenous injection of 200 μCi of the tracer dissolved in saline. […] Within 1 to 2 hours radioactivity could be detected in the suprapubic region, but when the bladder was aspirated and washed, 3.8 μCi of radioactivity was found in the urine.

[8] = read-out: B/B0 × 10^2, tracer ^3 H-E2 (0.74 nM)
[9] = read-out: B/B0 × 10^2, tracer ^3 H-E2 (0.74 nM), competitor 5.0 nM
[10] = read-out: B/B0 × 10^2, tracer ^125 I-E2 (0.22 nM)
[11] = read-out: B/B0 × 10^2, tracer ^125 I-E2 (0.22 nM), competitor 5 nM

Question: Which relative binding affinity [1] does the source give for `C[C@]12CC[C@@H]3c4ccc(O)cc4C(I)=C[C@H]3[C@@H]1CC[C@@H]2O` [6-iodoestra-1,3,5(10), 6-tetraene-3,17β-diol] here?
Answer: 0.49

Question: For `C[C@]12CC[C@H](O)CC1=CC[C@@H]1[C@@H]2CC[C@]2(C)C(=O)CC[C@@H]12` [Dehydroisoandrosterone], which activity at 0.0005 µM [2, 8] is on record?
Answer: 98%

Question: And the activity at 0.005 µM [2, 9]?
Answer: 108%

Question: And the activity at 0.0005 µM [2, 10]?
Answer: 104%

Question: And the activity at 0.005 µM [2, 11]?
Answer: 107%

Question: Which relative binding affinity [1] does the source give for `C[C@]12CC[C@@H]3c4ccc(O)cc4CC[C@H]3[C@@H]1C[C@H](I)[C@@H]2O` [16β-iodoestra-1,3,5(10)-triene-3-17β-diol] here?
Answer: 0.57

Question: With `CC(=O)[C@H]1CC[C@H]2[C@@H]3CCC4=CC(=O)CC[C@]4(C)[C@H]3CC[C@]12C` [Progesterone] as the compound, how does the activity at 0.0005 µM [2, 8] read?
Answer: 97%

Question: And the activity at 0.005 µM [2, 9]?
Answer: 102%

Question: What about the activity at 0.0005 µM [2, 10] of the same compound?
Answer: 98%

Question: And the activity at 0.005 µM [2, 11]?
Answer: 102%

Question: For `C[C@]12CC[C@@H]3c4ccc(O)cc4CC[C@H]3[C@@H]1CC[C@@H]2O` [E2, estra-1,3,5(10)-triene-3,17β-diol, reference compound], which “tracer displaced from the antibody” value ([3]; anti-E2-6-carboxymethyloxime-albumin, 1 pg of E2) is on record?
Answer: ~50%

Question: And the “inducing growth of MCF-7” value [4]?
Answer: equipotent

Question: What does the source list for `C[C@]12CC[C@@H]3c4ccc(O)cc4CC[C@H]3[C@@H]1C[C@@H](I)[C@@H]2O` [I-E2, 16α-iodoestra-1,3,5,(10)-triene-3,17β-diol]?
Answer: inducing growth of MCF-7 [4]: equipotent; binding capacity [5]: 411 fmol/mg of protein; Kd ([5]; read-out: Ka (association constant) (converted)): 0.141 nM; estrogenic potency in vivo [6]: estrogenic in vivo, albeit not as potent as E2 itself; activity at 0.0005 µM [2, 8]: 69%; activity at 0.005 µM [2, 9]: 12%; activity at 0.0005 µM [2, 10]: 35%; activity at 0.005 µM [2, 11]: 2%; competing for the estrogen receptor (in words) ([2]; regardless of which radioactive ligand was used): about equipotent

Question: Which results are given for `C[C@]12C[C@H](O)[C@H]3[C@@H](CCC4=CC(=O)CC[C@@]43C)[C@@H]1CC[C@@H]2C(=O)CO` [Corticosterone]?
Answer: activity at 0.0005 µM ([2]; tracer ^3 H-E2 (0.74 nM), read-out: B/B0 × 10^2): 103%; activity at 0.005 µM ([2]; tracer ^3 H-E2 (0.74 nM), competitor 5.0 nM, read-out: B/B0 × 10^2): 97%; activity at 0.0005 µM ([2]; tracer ^125 I-E2 (0.22 nM), read-out: B/B0 × 10^2): 100%; activity at 0.005 µM ([2]; tracer ^125 I-E2 (0.22 nM), competitor 5 nM, read-out: B/B0 × 10^2): 93%

Question: With `[3H]C1c2cc(O)ccc2[C@H]2CC[C@]3(C)[C@@H](O)CC[C@H]3[C@@H]2C1[3H]` (stereo partly drawn) [^3 H-E2] as the compound, how does the “binding of tracer to antisera” value ([3]; three antisera, various dilutions) read?
Answer: bound to all three antisera

Question: With `C[C@]12CC[C@@H]3c4ccc(O)cc4CC[C@H]3[C@@H]1C[C@@H]([131I])[C@@H]2O` [^131 I-E2] as the compound, how does the “imaging of the uterus” value ([7]; Anger Camera) read?
Answer: uterus was then imaged

Question: And the “radioactivity found in the urine” value ([7]; bladder aspirated and washed, i.v. 200 μCi)?
Answer: 3.8 μCi

Question: What about the “time until radioactivity detected in the suprapubic region” value ([7]; i.v. 200 μCi) of the same compound?
Answer: 1 to 2 h

Question: What about the “uptake of the tracer in the liver” value ([7]; i.v. 200 μCi, pin-hole collimator scan) of the same compound?
Answer: could be seen immediately
